Test results from PubChem BioAssay AID1224915.
pEC50: −log10 of the molar value.

Test system: MDA-MB-231 antiproliferation
Assay: PubChem AID 1224915

pEC50: 8.05
Compound: COc1cc(-c2nn(CCN3CCC(N(C)C)CC3)c3ncnc(N)c23)ccc1NC(=O)OC(C)(C)C
